Data on two compounds can be found in the NIST ThermoML archive (doi:10.1007/s10765-008-0514-x).

This series can be described thus: cn = amount concentration of the nth substance listed, in mol/dm3. The conditions noted are these: 101 kPa, Liquid, c1 = 2.

Several values for one entry are separate records, joined by “and”; a condition that tells them apart may be missing. Equal entries are not always repeated. Numbers after ± are expanded uncertainties.

As a reminder, the mass density is mass per unit of volume. What is called speed of sound is how fast a sound wave travels through the sample. `[Cl-].[K+]` [potassium chloride] + O: the mass density reads like this: (298.15 K) 1089.1 ± 1.7 kg/m3; (303.15 K) 1087.5 ± 1.8 kg/m3; (308.15 K) 1085.6 ± 1.9 kg/m3; (313.15 K) 1083.4 ± 1.9 kg/m3; (318.15 K) 1080.9 ± 2 kg/m3; (323.15 K) 1078.3 ± 2.1 kg/m3. Besides, the speed of sound was 1595.2 ± 3.3 m/s (298.15 K); 1605.9 ± 3.3 m/s (303.15 K); 1610.2 ± 3.3 m/s (308.15 K); 1616.4 ± 3.4 m/s (313.15 K); 1621.4 ± 3.4 m/s (318.15 K); 1626.5 ± 3.4 m/s (323.15 K).
On to `O=[N+]([O-])[O-].[K+]` [potassium nitrate] + O, for which the mass density is, setting by setting: (298.15 K) 1122.9 ± 1.8 kg/m3; (303.15 K) 1120.6 ± 1.9 kg/m3; (308.15 K) 1118 ± 1.9 kg/m3; (313.15 K) 1115 ± 2 kg/m3; (318.15 K) 1111.8 ± 2.1 kg/m3; (323.15 K) 1108.2 ± 2.1 kg/m3. Moreover, the speed of sound runs as follows: (298.15 K) 1562 ± 3.3 m/s; (303.15 K) 1569.4 ± 3.3 m/s; (308.15 K) 1575.8 ± 3.3 m/s and 1575 ± 3.3 m/s; (313.15 K) 1580 ± 3.3 m/s; (318.15 K) 1584.6 ± 3.3 m/s and 1584.5 ± 3.3 m/s; (323.15 K) 1588.9 ± 3.3 m/s and 1588.8 ± 3.3 m/s.
